According to patent US9376424B2, “Methods for treating post traumatic stress disorder” (AZEVAN PHARMACEUTICALS, INC., priority 2010, dated 2016):
Entries after “also recorded” stand apart in the source; their conditions may differ. Where two headings read alike, the source gives them in different places.

Key:
human V1a receptor = target: T1, human V1a receptor (Homo sapiens, UniProt P37288); test: Human vasopressin V1a receptor binding assay (3H-AVP competition, hV1a cell line)
T1 construct: host or cells: CHO cells
Method: Human vasopression V1a receptor binding assay. A cell line expressing the human V1a receptor in CHO cells (henceforth referred to as the hV1a cell line) was obtained from Dr. Michael Brownstein, NIMH, Bethesda, Md., USA. The hV1a cDNA sequence is described by Thibonnier et al., Journal of Biological Chemistry, 269, 3304-3310 (1994), and the expression method was the same as described by Morel et al. (1992). The hV1a cell line was grown in alpha-MEM with 10% fetal bovine serum and 250 ug/ml G418 (Gibco, Grand Island, N.Y., USA). For competitive binding assay, hV1a cells were plated into 6-well culture plate at 1:10 dilution from a confluency flask, and maintained in culture for at least two days. Culture medium was then removed, cells were washed with 2 ml binding buffer (25 mM Hepes, 0.25% BSA, 1×DMEM, PH=7.0). To each well, 990 μl binding buffer containing 1 nM 3H-AVP was added, and followed by 10 μl series diluted Example compounds dissolved in DMSO. […] 100 nM cold AVP (Sigma) was used to assess non-specific binding. Cells were incubated for 45 minutes at 37° C., assay mixture was removed and each well was washed three times with PBS (pH=7.4). 1 ml 2% SDS was added per well and plates were let sit for 30 minutes. The whole content in a well was transferred to a scintillation vial. Each well was rinsed with 0.5 ml PBS which was then added to the corresponding vial. Scintillation fluid (Ecoscint, National Diagnostics, Atlanta, Ga.) was then added at 3 ml per vial. Samples were counted in a liquid scintillation counter (Beckman LS3801). IC50 values were calculated by Prism Curve fitting software.
All of the alkanedioic esters and amides exemplified in the foregoing examples dissolved in DMSO were tested in this assay. Binding curves were generated according to methods described by Thibonnier et al. (1994). [^3H]-AVP was added to the hV1a cell cultures followed by 10-fold dilutions of each test compound.

V2 = V2 (Homo sapiens, UniProt P30518); test: V2 receptor inhibition data (Ki); assay type: binding; details: selectivity table
resident male rats = test: Resident-Intruder Model of Stress and Aggression in Rats (neuroimaging); assay type: in vivo, rat
Excerpt: Resident-Intruder Model of Stress and Aggression in Rats. Neuroimaging is used to assess the blockade of stress/arousal with test compound compared to control. The effect of AVN251-HCl on functional circuitry was examined using the imaging method for awake rats. Additional details of the assay are described in Ferris et al. (2008).
Male rats in the company of a female cage mate will piloerect in the presence of a male intruder. This piloerection is a sign of stress and aggressive intent and is associated with activation of stress/arousal circuits in the brain. […] Resident male rats from six male:female pairs were imaged while fully awake. During a single imaging session, these males were treated with vehicle or AVN251-HCl (5 mg/kg).
The total volume of brain activation for resident males confronted with their mate alone, mate plus intruder, and mate plus intruder in the presence of AVN251-HCl can be viewed as 3D models. While there appears to be a general decrease in BOLD signal in major regions with AVN251-HCl treatment, sexual motivation, as assessed by the presentation of a novel receptive female, was unaffected by V1a receptor blockade.
Stress circuit activation in response to an intruder male is assessed by obtaining brain scans viewed from a caudal/dorsal perspective as translucent shells. The localization of activated voxels is mapped as 3D volumes of activation, which are composed of 10 subjects each. Once fully registered and segmented, the statistical responses for each subject are averaged on a voxel-by-voxel basis. Those averaged voxels exceeding a 2.0% threshold are shown in their appropriate spatial location. Functional images are acquired on awake rats at 4.7 T.
The 3D volumes of activation are composed from results obtained with 10 subjects in each condition. […] Particular olfactory systems measured included the anterior olfactory nucleus, olfactory tubercle, piriform cortex, n. laterial olfactory tract, and entrorhinal cortex. Particular dopaminergic systems measured included the prelimbic cortex, accumbens, ventral pallidum, medial dorsal thalamus, and ventral tegmentum.
Awake rats were imaged when presented with their mate+an intruder, a highly stressful stimulus.

[1] = system: adult male Long Evans rats; test: Light:Dark Shuttle Box; assay type: in vivo, rat
Method: Anxiolytic Effect in the Light:Dark Shuttle Box. The light:dark shuttle box is a standard and well characterized assay for anxiolytic effects of a test compound. Rats naturally avoid the light side of the box because it is stressful. Increased time on the light side by the treatment group compared to control reflects an anxiolytic effect (Bourin and Hascoet, 2003). Adult male Long Evans rats were administered AVN251 (0.1-2 mg/kg) by oral gavage 90 min prior to testing in a light: dark shuttle box.

T1 sequence (P37288 whole entry): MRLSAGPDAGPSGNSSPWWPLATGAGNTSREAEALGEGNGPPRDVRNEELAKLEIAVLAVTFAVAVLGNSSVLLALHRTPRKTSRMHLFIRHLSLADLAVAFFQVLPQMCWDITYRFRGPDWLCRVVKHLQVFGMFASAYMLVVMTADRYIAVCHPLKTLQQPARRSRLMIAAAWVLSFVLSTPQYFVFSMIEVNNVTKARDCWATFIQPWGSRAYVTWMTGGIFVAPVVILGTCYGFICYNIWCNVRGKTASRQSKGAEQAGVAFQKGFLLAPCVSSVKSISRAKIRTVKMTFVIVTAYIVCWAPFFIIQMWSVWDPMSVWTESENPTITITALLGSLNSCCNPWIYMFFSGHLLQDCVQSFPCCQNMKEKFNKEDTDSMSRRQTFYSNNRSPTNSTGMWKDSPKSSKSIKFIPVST
V2, sequence (P30518 whole entry): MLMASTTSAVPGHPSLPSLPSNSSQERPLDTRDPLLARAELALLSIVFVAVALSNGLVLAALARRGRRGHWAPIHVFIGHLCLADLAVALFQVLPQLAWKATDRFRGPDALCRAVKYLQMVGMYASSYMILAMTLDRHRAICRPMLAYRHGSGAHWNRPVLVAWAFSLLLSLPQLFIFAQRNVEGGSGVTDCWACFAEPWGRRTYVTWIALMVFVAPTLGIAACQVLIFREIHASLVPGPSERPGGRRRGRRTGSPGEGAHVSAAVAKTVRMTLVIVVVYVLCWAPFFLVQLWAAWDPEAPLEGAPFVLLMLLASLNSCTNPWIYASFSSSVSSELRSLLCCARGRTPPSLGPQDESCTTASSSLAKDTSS

## CN(Cc1cccc(C(F)(F)F)c1)C(=O)[C@@H](CC(=O)N1CCC(N2CCCCC2)CC1)N1C(=O)[C@@H](N2C(=O)OC[C@@H]2c2ccccc2)[C@H]1C=Cc1ccccc1 [Example 225, 2(R)-[[4-(Piperidinyl)piperidinyl]carbonylmethyl]-2-[3(S)-(4(S)-phenyloxazolidin-2-on-3-yl)-4(R)-(2-styryl)azetidin-2-on-1-yl]acetic acid N-methyl-N-(3-trifluoromethylbenzyl)amide]
Human V1a receptor; CHO cells expressing human V1a, 1 nM 3H-AVP, read-out: V1a Binding Affinity IC50
  IC50: 1.08 nM
Human V1a receptor; CHO cells expressing human V1a, 1 nM 3H-AVP, read-out: V1a Ki
  Ki: 0.66 nM
Human V1a receptor; read-out: IC50, dose-dependent competitive binding curve, hV1a cell line, [3H]-AVP
  IC50: 1.86 to 2.13 nM
Human V1a receptor; read-out: Ki, dose-dependent competitive binding curve, hV1a cell line, [3H]-AVP
  Ki: 1.14 to 1.3 nM
Human V1a receptor; selectivity table, read-out: inhibition data (Ki, nM), Receptor V1a
  Ki: 0.66 nM
V2
  Ki: > 1000 nM
Resident male rats; awake resident male rats, 5 mg/kg, listed as AVN251, 5 mg/kg
  sexual motivation (reward circuit activation by novel receptive female): activates reward circuitry; also recorded: remained intact
Resident male rats; awake resident male rats, mate plus intruder, 5 mg/kg
  activation of stress/arousal circuit in response to male intruder (BOLD imaging): blocked the stress/arousal response
Resident male rats; oral administration, intruder stimulus
  stress and aggressive motivation compared to controls: blocked stress and aggressive motivation
[1]; 0.1-2 mg/kg oral gavage 90 min prior to testing
  anxiety vs. vehicle: dose dependent decrease in anxiety
[1]; 1 or 2 mg/kg oral gavage
  light-dark entries (FIG. 2C): more light-dark entries
  time in the dark (FIG. 2B): less time in the dark
  time in the light (FIG. 2A): significantly more time in the light
